According to patent publication US7786088B2, “Targeting vector to the urokinase plasminogen activator receptor” (University of Iowa Research Foundation, priority 2000, dated 2010):

Legend:
[1] = test system: human airway epithelia; test: gene transfer by adenovirus:CaPi coprecipitate (β-galactosidase activity); assay type: cell-based
Protocol: B. Evaluation of Gene Transfer: The apical surface of human airway epithelia was washed once with PBS. Adenovirus was applied at a multiplicity of infection (MOI) of 50 to the apical surface for 30 minutes at 37° C. Adenovirus was applied either alone or in a CaPi coprecipitate as previously described by Fasbender et al., J. Clin. Invest. 102:184-193 (1998) and Lee et al., Hum. Gene Ther. 10:603-13 (1999) (incorporated herein by reference). Following 3 washes, cells were returned to the incubator and assayed for gene transfer 48 hours later. AAV2 was applied at an MOI<1 to the apical surface for 30 minutes at 37° C. AAV2 was applied either alone or on a CaPi coprecipitate formed as previously described by Fasbender et al. and Lee et al. for adenovirus. Following 3 washes, cells were returned to the incubator and assayed for gene transfer 14 days later. Total β-galactosidase activity was measured using a commercially available technique (Galacto-Light, Topix, Bedford, Mass.).

[2] = test system: human airway epithelia; test: tight junction integrity measured by transepithelial resistance; settings: following uPA or u7 treatment
Protocol: D. uPA Enhancement of Gene Transfer: The ability of uPA to enhance gene transfer by nonspecifically bound vector was tested.

[3] = test system: human airway epithelia; test: fluid phase endocytosis, uptake of Texas Red dextran; assay type: cell-based; settings: 0.15 μM peptide applied to apical surface, FIG. 4
Protocol: B. Assay for Fluid Phase Endocytosis: Cells were chilled on ice for 15 minutes and then incubated with […] uPA or 0.15 μM u7-peptide (SEQ ID NO:1) added to the apical surface for 30 minutes at 4° C. Following 3 washes in PBS, cells were incubated with 0.5 mg/ml Texas Red-labeled fixable dextran (3,000 MW, Molecular Probes, Eugene, Oreg.) for 10 minutes at 37° C. Following 3 washes in PBS, cells were fixed with 4% paraformaldehyde, mounted onto class slides with Vectashield (Vector Laboratories, Inc., Burlingame, Calif.), and viewed by fluorescence microscopy. Control cells were incubated with Texas Red-labeled dextran alone to measure basal levels of endocytosis. Monkey tracheal explants were assayed as described for primary cell cultures. To evaluate time-dependent changes, cells were treated as described above with uPA (50 nM) followed by incubations in Texas Red dextran for 5, 10, 30 or 60 minutes at 37° C. […]
B. Effect of uPA on Fluid Phase Endocytosis in Human Airway Epithelia: Stimulation of endocytosis by uPA was determined by measuring the uptake of Texas Red-conjugated dextran, a fluid phase marker. […]

[4] = test system: CF airway epithelia; test: cAMP-stimulated short-circuit current after Ad2/CFTR-16:CaPi gene transfer; assay type: cell-based, human; settings: FIG. 5C; for correction of Cl− channel defect (cAMP-stimulated current): CF airway epithelia, Ad2/CFTR-16 in CaPi coprecipitate
Protocol: C. Measurement of Transepithelial Electrical Properties: Epithelia were mounted in modified Ussing chambers (Jim's Instruments, Iowa City, Iowa) and bathed with Ringer's solution on their submucosal side (135 mM NaCl, 2.4 K2HPO4, 0.6 mM […], 1.2 mM CaCl2, 1.2 mM MgCl2, 5 mM Hepes, pH 7.4 and 10 mM dextrose). The mucosal surface was bathed in the identical solution, except that 135 mM NaGluconate replaced the 135 mM NaCl. In this way, a transepithelial Cl^− concentration gradient was established in order to magnify changes in Cl^− transport. The transepithelial Na^+ transport was blocked with mucosal amiloride (10 μM). Mucosal DIDS (100 μM) blocked non-CFTR Cl^− transport. The cAMP agonists, forskolin (10 μM) and IBMX (100 μM) were applied to both solutions to stimulate transepithelial Cl^− transport via CFTR.
The ability of uPA to enhance gene transfer and expression of CFTR in differentiated CF airway epithelia was also tested.

Substance | increase in gene transfer compared to the coprecipitate alone ([1]; apical application before CaPi:adenovirus coprecipitates (uPA 50 nM), assayed 48 hours later, FIG. 5A) | effect on gene transfer by CaPi coprecipitate (in words) ([1]; compared with uPA) | transepithelial resistance [2] | stimulation of fluid phase endocytosis [3] | correction of Cl− channel defect (cAMP-stimulated current) [4] | correction of Cl− channel defect (cAMP-stimulated current) ([4]; listed as u7 peptide) | uptake of a vector expressing CFTR ([4]; cystic fibrosis (CF) airway epithelia)
CLNGGTC (listed as Homo sapiens) [u7-peptide, seven residue peptide comprising amino acids 13-19 of uPA] | 8-10 fold | effect similar to uPA | did not change | stimulated fluid phase endocytosis | further enhanced the correction | to a greater extent than the full length uPA | enhanced the uptake
CTCGNCL [scrambled peptide, reference compound] | – | – | – | did not | – | – | –
